Measurements as given in ChEMBL document CHEMBL3045187, “Chemical weed control in seedbed sown onion (Allium cepa L.)” (Crop Prot, 2006).

Tests used:
Chenopodiastrum murale [1] = assay: Herbicidal activity against Chenopodium murale assessed as total fresh weight at 0.225 kg/ha applied as spray during postemergence (reference value: 23.6 MT/ha); format: functional
Malva sylvestris [2] = assay: Herbicidal activity against Malva sylvestris assessed as total fresh weight at 0.225 kg/ha applied as spray during post-emergence (reference value: 23.6 MT/ha); format: functional
Cyperus rotundus [3] = assay: Herbicidal activity against Cyperus rotundus assessed as total fresh weight at 0.225 kg/ha applied as spray during post-emergence (reference value: 23.6 MT/ha); format: functional
Malva sylvestris [4] = assay: Herbicidal activity against Malva sylvestris assessed as total dry weight at 0.225 kg/ha applied as spray during post-emergence (reference value: 4.1 MT/ha); format: functional
Chenopodiastrum murale [5] = assay: Herbicidal activity against Chenopodium murale assessed as total dry weight at 0.225 kg/ha applied as spray during postemergence (reference value: 4.1 MT/ha); format: functional
Allium cepa [6] = assay: Phytotoxicity in Allium cepa (onion) seedling assessed as total fresh weight at 0.225 kg/ha applied as spray during post-emergence (reference value: 7.71 MT/ha); format: organism-based; conditions: in vivo, other
Cyperus rotundus [7] = assay: Herbicidal activity against Cyperus rotundus assessed as total dry weight at 0.225 kg/ha applied as spray during post-emergence (reference value: 4.1 MT/ha); format: functional
Cyperus rotundus [8] = assay: Herbicidal activity against Cyperus rotundus assessed as total dry weight at 1.5 kg/ha applied as spray before seed sowing (reference value: 4.1 MT/ha); format: functional; conditions: pooled result: one value given for 3 cell lines, strains, targets or settings
Allium cepa [9] = assay: Phytotoxicity in Allium cepa (onion) seedling assessed as total fresh weight at 1.5 kg/ha applied as spray before seed sowing (reference value: 7.71 MT/ha); format: organism-based; conditions: in vivo, other
Cyperus rotundus [10] = assay: Herbicidal activity against Cyperus rotundus assessed as total fresh weight at 1.5 kg/ha applied as spray before seed sowing (reference value: 23.6 MT/ha); format: functional; conditions: pooled result: one value given for 3 cell lines, strains, targets or settings
Cyperus rotundus [11] = assay: Herbicidal activity against Cyperus rotundus assessed as total fresh weight at 0.86 kg/ha applied as spray before seed sowing (reference value: 23.6 MT/ha); format: functional
Malva sylvestris [12] = assay: Herbicidal activity against Malva sylvestris assessed as total dry weight at 0.86 kg/ha applied as spray before seed sowing (reference value: 4.1 MT/ha); format: functional
Cyperus rotundus [13] = assay: Herbicidal activity against Cyperus rotundus assessed as total dry weight at 0.86 kg/ha applied as spray before seed sowing (reference value: 4.1 MT/ha); format: functional
Allium cepa [14] = assay: Phytotoxicity in Allium cepa (onion) seedling assessed as total fresh weight at 0.86 kg/ha applied as spray before seed sowing (reference value: 7.71 MT/ha); format: organism-based; conditions: in vivo, other
Chenopodiastrum murale [15] = assay: Herbicidal activity against Chenopodium murale assessed as total fresh weight at 0.86 kg/ha applied as spray before seed sowing (reference value: 23.6 MT/ha); format: functional
Malva sylvestris [16] = assay: Herbicidal activity against Malva sylvestris assessed as total fresh weight at 0.86 kg/ha applied as spray before seed sowing (reference value: 23.6 MT/ha); format: functional
Chenopodiastrum murale [17] = assay: Herbicidal activity against Chenopodium murale assessed as total dry weight at 0.86 kg/ha applied as spray before seed sowing (reference value: 4.1 MT/ha); format: functional
Malva sylvestris [18] = assay: Herbicidal activity against Malva sylvestris assessed as decrease in total dry weight at 0.6 kg/ha applied as spray during post-emergence relative to weed-infested control; format: functional; design: scale not given: the % may be the effect or the level left
Cyperus rotundus [19] = assay: Herbicidal activity against Cyperus rotundus assessed as total fresh weight at 0.6 kg/ha applied as spray before seed sowing (reference value: 23.6 MT/ha); format: functional
Malva sylvestris [20] = assay: Herbicidal activity against Malva sylvestris assessed as total fresh weight at 0.6 kg/ha applied as spray during post-emergence (reference value: 23.6 MT/ha); format: functional
Cyperus rotundus [21] = assay: Herbicidal activity against Cyperus rotundus assessed as decrease in total dry weight at 0.6 kg/ha applied as spray during post-emergence relative to weed-infested control; format: functional; design: scale not given: the % may be the effect or the level left
Chenopodiastrum murale [22] = assay: Herbicidal activity against Chenopodium murale assessed as decrease in total dry weight at 0.6 kg/ha applied as spray during postemergence relative to weed-infested control; format: functional; design: scale not given: the % may be the effect or the level left
Chenopodiastrum murale [23] = assay: Herbicidal activity against Chenopodium murale assessed as total fresh weight at 0.6 kg/ha applied as spray before seed sowing (reference value: 23.6 MT/ha); format: functional
Cyperus rotundus [24] = assay: Herbicidal activity against Cyperus rotundus assessed as total fresh weight at 0.6 kg/ha applied as spray during post-emergence (reference value: 23.6 MT/ha); format: functional
Allium cepa [25] = assay: Phytotoxicity in Allium cepa (onion) seedling assessed as total fresh weight at 0.6 kg/ha applied as spray before seed sowing (reference value: 7.71 MT/ha); format: organism-based; conditions: in vivo, other
Chenopodiastrum murale [26] = assay: Herbicidal activity against Chenopodium murale assessed as total dry weight at 0.6 kg/ha applied as spray before seed sowing (reference value: 4.1 MT/ha); format: functional
Allium cepa [27] = assay: Phytotoxicity in Allium cepa (onion) seedling assessed as total fresh weight at 0.6 kg/ha applied as spray during post-emergence (reference value: 7.71 MT/ha); format: organism-based; conditions: in vivo, other
Malva sylvestris [28] = assay: Herbicidal activity against Malva sylvestris assessed as total fresh weight at 0.6 kg/ha applied as spray before seed sowing (reference value: 23.6 MT/ha); format: functional
Chenopodiastrum murale [29] = assay: Herbicidal activity against Chenopodium murale assessed as total fresh weight at 0.6 kg/ha applied as spray during postemergence (reference value: 23.6 MT/ha); format: functional
Malva sylvestris [30] = assay: Herbicidal activity against Malva sylvestris assessed as total dry weight at 0.6 kg/ha applied as spray before seed sowing (reference value: 4.1 MT/ha); format: functional
Cyperus rotundus [31] = assay: Herbicidal activity against Cyperus rotundus assessed as total dry weight at 0.6 kg/ha applied as spray before seed sowing (reference value: 4.1 MT/ha); format: functional
Chenopodiastrum murale [32] = assay: Herbicidal activity against Chenopodium murale assessed as total fresh weight at 3.2 kg/ha applied as spray before seed sowing (reference value: 23.6 MT/ha); format: functional
Cyperus rotundus [33] = assay: Herbicidal activity against Cyperus rotundus assessed as total fresh weight at 3.2 kg/ha applied as spray before seed sowing (reference value: 23.6 MT/ha); format: functional
Cyperus rotundus [34] = assay: Herbicidal activity against Cyperus rotundus assessed as total dry weight at 3.2 kg/ha applied as spray before seed sowing (reference value: 4.1 MT/ha); format: functional
Malva sylvestris [35] = assay: Herbicidal activity against Malva sylvestris assessed as total fresh weight at 3.2 kg/ha applied as spray before seed sowing (reference value: 23.6 MT/ha); format: functional
Chenopodiastrum murale [36] = assay: Herbicidal activity against Chenopodium murale assessed as total dry weight at 3.2 kg/ha applied as spray before seed sowing (reference value: 4.1 MT/ha); format: functional
Malva sylvestris [37] = assay: Herbicidal activity against Malva sylvestris assessed as total dry weight at 3.2 kg/ha applied as spray before seed sowing (reference value: 4.1 MT/ha); format: functional
Allium cepa [38] = assay: Phytotoxicity in Allium cepa (onion) seedling assessed as total fresh weight at 3.2 kg/ha applied as spray before seed sowing (reference value: 7.71 MT/ha); format: organism-based; conditions: in vivo, other

Compound: C[C@@H](Oc1ccc(Oc2ccc(C(F)(F)F)cn2)cc1)C(=O)O [FLUAZIFOP-P]
- Activity (Chenopodiastrum murale [1]): 15.6 MT/ha
- Activity (Malva sylvestris [2]): 15.6 MT/ha
- Activity (Cyperus rotundus [3]): 15.6 MT/ha
- Activity (Malva sylvestris [4]): 2.9 MT/ha
- Activity (Chenopodiastrum murale [5]): 2.9 MT/ha
- Activity (Allium cepa [6]): 9.18 MT/ha
- Activity (Cyperus rotundus [7]): 2.9 MT/ha

Compound: C#CC(C)(C)NC(=O)c1cc(Cl)cc(Cl)c1 [PRONAMIDE]
- Activity (Cyperus rotundus [8]): 3.61 MT/ha
- Activity (Allium cepa [9]): 6.67 MT/ha
- Activity (Cyperus rotundus [10]): 20.5 MT/ha

Compound: CCCN(CCC)c1c([N+](=O)[O-])cc(C(F)(F)F)cc1[N+](=O)[O-] [TRIFLURALIN]
- Activity (Cyperus rotundus [11]): 14.8 MT/ha
- Activity (Malva sylvestris [12]): 2.69 MT/ha
- Activity (Cyperus rotundus [13]): 2.69 MT/ha
- Activity (Allium cepa [14]): 7.04 MT/ha
- Activity (Chenopodiastrum murale [15]): 14.8 MT/ha
- Activity (Malva sylvestris [16]): 14.8 MT/ha
- Activity (Chenopodiastrum murale [17]): 2.69 MT/ha

Compound: CCOc1cc(Oc2ccc(C(F)(F)F)cc2Cl)ccc1[N+](=O)[O-] [OXYFLUORFEN]
- Activity (Malva sylvestris [18]): 68%
- Activity (Cyperus rotundus [19]): 15.8 MT/ha
- Activity (Malva sylvestris [20]): 7.7 MT/ha
- Activity (Cyperus rotundus [21]): 68%
- Activity (Chenopodiastrum murale [22]): 68%
- Activity (Chenopodiastrum murale [23]): 15.8 MT/ha
- Activity (Cyperus rotundus [24]): 7.7 MT/ha
- Activity (Allium cepa [25]): 8.68 MT/ha
- Activity (Chenopodiastrum murale [26]): 2.93 MT/ha
- Activity (Allium cepa [27]): 17.01 MT/ha
- Activity (Malva sylvestris [28]): 15.8 MT/ha
- Activity (Chenopodiastrum murale [29]): 7.7 MT/ha
- Activity (Malva sylvestris [30]): 2.93 MT/ha
- Activity (Cyperus rotundus [31]): 2.93 MT/ha

Compound: Nc1cnn(-c2ccccc2)c(=O)c1Cl [PYRAZON]
- Activity (Chenopodiastrum murale [32]): 9.5 MT/ha
- Activity (Cyperus rotundus [33]): 9.5 MT/ha
- Activity (Cyperus rotundus [34]): 1.94 MT/ha
- Activity (Malva sylvestris [35]): 9.5 MT/ha
- Activity (Chenopodiastrum murale [36]): 1.94 MT/ha
- Activity (Malva sylvestris [37]): 1.94 MT/ha
- Activity (Allium cepa [38]): 6.68 MT/ha
